Assay results as given in publication PMC7728077, “Double-Headed Cationic Lipopeptides: An Emerging Class of Antimicrobials” (International Journal of Molecular Sciences, 2020).
Values after ≈ are worked out from the molar mass of the structure shown. Square brackets hold non-standard residues; d marks the D form. Peptide text beside a SMILES is read from it. * marks the point of attachment. Palmitoyl = CCCCCCCCCCCCCCCC(=O)*; Dab = NCC[C@H](N)C(=O)O

Assays:
[1] = system: Escherichia coli ATCC 25922; format: cell-based; settings: ATCC 25922, 18 h
Description: (§1) Fmoc-Lys(Boc)-OH and the coupling reagents were purchased from GL Biochem (Shanghai, China). Palmitoyl Fmoc-amino acids: Fmoc-Lys(C16)-OH, Fmoc-Orn(C16)-OH, Fmoc-Dab(C16)-OH, and Fmoc-Dap(C16)-OH were acquired from Iris Biotech GmbH (Marktredwitz, Germany). The resin and solvents were purchases from Rapp Polymere (Tübingen, Germany), Merck (Darmstadt, Germany), and Avantor Performance Materials (Gliwice, Poland), respectively. The phospholipids, 1,2-dipalmitoyl-sn-glycero-3-phosphocholine (DPPC), 1,2-dipalmitoyl-sn-glycero-3-[phospho-rac-(1-glycerol)] (DPPG), 1-palmitoyl-2-oleoyl-glycero-3-phosphocholine (POPC) and 1-palmitoyl-2-oleoyl-sn-glycero-3-[phospho-rac-(1-glycerol)] (POPG), were purchased from Avanti Polar Lipids (Alabaster, AL, USA). LPS E. coli 055:B5 and phosphate buffered saline (PBS) were from Sigma-Aldrich (Steinheim, Germany). The Mueller Hinton broth was bought from BIOCORP (Warsaw, Poland) and the RPMI-1640 medium from Sigma-Aldrich (Steinheim, Germany). LIVE/DEAD™ BacLight™ Bacterial Viability Kit was obtained from Thermo Fisher Scientific (Waltham, MA, USA). Bacterial strains (Escherichia coli ATCC 25922, Pseudomonas aeruginosa ATCC 9027, Staphylococcus aureus ATCC 25923, Staphylococcus epidermidis ATCC 1922) and the fungal strain (Candida albicans ATCC 10231) were obtained from the Polish Collection of Microorganisms, Polish Academy of Science, Institute of Immunology and Experimental Therapy, Wroclaw, Poland.
(§2) Antimicrobial activity of the lipopeptides was determined according to the broth microdilution guidelines recommended by the Clinical and Laboratory Standards Institute (CLSI). Minimum inhibitory concentrations (MICs) were assumed as the lowest concentration of the peptide solution, at which the visible growth of microorganisms was inhibited. MIC values of lipopeptides against bacteria were evaluated in the Mueller–Hinton broth and against fungus in the RPMI-1640 medium. Initial inoculums of bacteria and fungus (with concentrations of 5 × 10^5 CFU/mL and 2 × 10^3 CFU/mL, respectively) were exposed to increasing concentrations of lipopeptides solutions over the range of 1–512 µg/mL. […] The 96-well plates filled with appropriate inoculums and the tested compounds were incubated for 18 h at 37 °C. Presented values are the mean of the results obtained in three independent experiments.

[2] = system: Candida albicans ATCC 10231; format: cell-based; settings: ATCC 10231, 18 h
Description: as §1, §2

[3] = system: Staphylococcus aureus ATCC 25923; format: cell-based; settings: ATCC 25923, 18 h
Description: as §1, §2

[4] = system: Pseudomonas aeruginosa ATCC 9027; format: cell-based; settings: ATCC 9027, 18 h
Description: as §1, §2

[5] = system: Staphylococcus epidermidis ATCC 1922; format: cell-based; settings: ATCC 1922, 18 h
Description: as §1, §2

[6] = target: POPG large unilamellar vesicles (LUVs); assay: Isothermal titration calorimetry, binding to POPG; settings: ITC, 298.15 K
Description: (§3) Isothermal titration calorimetry (ITC) experiments were carried out at 298.15 K using an AutoITC isothermal titration calorimeter (MicroCal Inc., GE Healthcare, Northampton, MA, USA) equipped with a 1.4491 mL sample cell and a reference cell. A typical ITC experiment involved a series of consecutive injections of 10.02 µL aliquots of the titrant (2 µL for the first injection only) into the reaction cell, at an interval of 4 min. The stirrer speed was constantly kept at 300 rpm to provide thorough mixing inside the reaction cell. Three types of ITC experiments were performed. These included lipopeptides binding to POPG, POPC, and LPS. The experiments were carried out by titration of 1.3 mM POPG or POPC LUVs into 0.05 or 0.1 mM lipopeptide solutions and the titration of 0.5 or 0.75 mM lipopeptide solution into 200 or 400 µg/mL LPS solution. The molecular mass of LPS was assumed to be 20,000 Da. To assess the heat of dilution, control experiments were performed by titration of an appropriate titrant into PBS. Final results were evaluated with an ITC module for ORIGIN 7 software, provided by MicroCal, Inc. (Northampton, MA, USA). The binding constant, stoichiometry, and enthalpy of interactions were directly determined from ITC experiment by fitting one of the built-in curve fitting models to the experimental data points. Changes in entropy (∆S°) and the Gibbs free energy (∆G°) were calculated from the following equation: ∆G^°=−RTln(55.5Ka)=∆H^°−T∆S^° where 55.5 is the molar concentration of water, R is the gas constant (1.986 cal·mol^−1·K^−1), and T is the absolute temperature.

E. coli = assay: LIVE/DEAD SYTO9/PI bacterial viability staining, fluorescence microscopy; format: cell-based, Escherichia coli; settings: 4, 8 and 16 µg/mL (1×, 2×, 4× MIC); at least two independent replicates
Description: (§4) Bacteria were inoculated in the Luria–Bertani medium and cultured with shaking at 37 °C up to the early exponential phase (A600 = 0.1). Then, 1.5 mL of the cultures were transferred to 5 mL Eppendorf tubes and treated with suitable peptides added at concentrations of 1×, 2×, or 4× MIC. For the negative control, bacteria were treated with a pure vehicle (water). Next, the cells were cultured for 1 or 2 h, as indicated. To obtain a positive control, at the end of the incubation, one portion of bacteria was collected and suspended in 200 µL of 70% ethanol for 5 min. After incubation, bacteria were collected by centrifugation (10 min, 3000× g) and washed twice with 0.85% NaCl. To determine membrane integrity, bacteria were stained with a LIVE/DEAD™ BacLight™ Bacterial Viability Kit (Thermo Fisher Scientific, Waltham, MA, USA) containing two dyes, i.e., a bacterial membrane permeable SYTO9 (green fluorescence) and an impermeable propidium iodide (red fluorescence) that stains only bacteria with damaged membrane. The staining was performed according to the manufacturer instructions. Then, bacteria were collected by centrifugation and washed twice with 0.85% NaCl. Bacteria pellets were suspended in 10 µL of 0.85% NaCl. Next, 3 µL of each suspension were spotted on agarose pads, covered with coverslips and immediately imaged using fluorescence microscope (Leica DMI4000B) with 100× objective. […]

S. epidermidis = assay: as above; format: cell-based, Staphylococcus epidermidis; settings: 8, 16 and 32 µg/mL (1×, 2×, 4× MIC), regardless of concentration; at least two independent replicates
Description: as §4

[7] = system: lipopolysaccharide (LPS) E. coli 055:B5; assay: Isothermal titration calorimetry, binding to LPS; settings: ITC, two sets of sites model
Description: as §3, with “The experiments were carried out by titration of 1.3 mM POPG or POPC LUVs into 0.05 or 0.1 mM lipopeptide solutions and the titration of 0.5 or 0.75 mM lipopeptide solution into 200 or 400 µg/mL LPS solution. The molecular mass of LPS was assumed to be 20,000 Da. To assess the heat of dilution, control experiments were performed by titration of an appropriate titrant into PBS.” left out

[8] = 1.3 mM POPG LUVs into lipopeptide, PBS, single transition or first line of two binding events

Row | pKITC, POPG [6, 8] | pKITC, POPG ([6]; second line printed for the peptide (second binding event)) | SMILES | MIC, E. coli [1] [µg/mL] | MIC, C. albicans [2] [µg/mL] | MIC, S. aureus [3] [µg/mL] | MIC, P. aeruginosa [4] [µg/mL] | MIC, S. epidermidis [5] [µg/mL] | membrane integrity of E. coli cells (SYTO9/PI staining) (E. coli) | membrane integrity of S. epidermidis cells (SYTO9/PI staining) (S. epidermidis) | pKITC1, LPS E. coli 055:B5 ([7]; site 1) | pKITC2, LPS E. coli 055:B5 ([7]; site 2)
1 | 8.09 ± 0.37 | 6.59 ± 0.26 | CCCCCCCCCCCCCCCC(=O)NCC[C@H](NC(=O)[C@@H](N)CCCCN)C(=O)N[C@@H](CCCCN)C(N)=O [K(DabC16)K-NH2] (H-Lys-[Dab](Palmitoyl)-Lys-NH2) | 8 (≈ 13.1 µM) | 16 (≈ 26.1 µM) | 8 (≈ 13.1 µM) | 16 (≈ 26.1 µM) | 8 (≈ 13.1 µM) | – | – | – | –
2 | 5.66 ± 0.11 | – | CCCCCCCCCCCCCCCC(=O)NCCCC[C@H](NC(=O)[C@@H](N)CCCCN)C(=O)N[C@@H](CCCCN)C(N)=O [K(KC16)K-NH2] | 8 (≈ 12.5 µM) | 8 (≈ 12.5 µM) | 4 (≈ 6.25 µM) | 16 (≈ 25 µM) | 8 (≈ 12.5 µM) | – | – | – | –
3 | – | – | CCCCCCCCCCCCCCCC(=O)NCCCC[C@H](NC(=O)[C@H](CCCCN)NC(=O)[C@@H](N)CCCCN)C(=O)N[C@@H](CCCCN)C(=O)N[C@@H](CCCCN)C(N)=O [KK(KC16)KK-NH2] (H-KKK(Palmitoyl)KK-NH2) | 4 (≈ 4.46 µM) | 16 (≈ 17.9 µM) | 8 (≈ 8.93 µM) | 16 (≈ 17.9 µM) | 8 (≈ 8.93 µM) | smaller number of red-stained cells than in the case of S. epidermidis | stained red | 7.67 ± 0.29 | 6.38 ± 0.14

Row | SMILES | pKITC, POPG [6, 8] | pKITC, POPG ([6]; second line printed for the peptide (second binding event)) | MIC, E. coli [1] [µg/mL] | MIC, C. albicans [2] [µg/mL] | MIC, S. aureus [3] [µg/mL] | MIC, P. aeruginosa [4] [µg/mL] | MIC, S. epidermidis [5] [µg/mL] | membrane integrity of E. coli cells (SYTO9/PI staining) (E. coli) | membrane integrity of S. epidermidis cells (SYTO9/PI staining) (S. epidermidis) | pKITC1, LPS E. coli 055:B5 ([7]; site 1) | pKITC2, LPS E. coli 055:B5 ([7]; site 2)
4 | CCCCCCCCCCCCCCCC(=O)NCCC[C@H](NC(=O)[C@@H](N)CCCCN)C(=O)N[C@@H](CCCCN)C(N)=O [K(OC16)K-NH2] | 5.79 ± 0.12 | – | 8 (≈ 12.8 µM) | 8 (≈ 12.8 µM) | 8 (≈ 12.8 µM) | 8 (≈ 12.8 µM) | 8 (≈ 12.8 µM) | – | – | – | –
